Results published in patent US20220323455A1, “FUSED HETEROCYCLIC DERIVATIVES AS ANTIVIRAL AGENTS” (priority 2019, published 2022).

Tested on: HBV
Assay: HBV replication inhibition assay (BDNA assay) in HepG2.2.15 cells
Assay type: cell-based, Hepatitis B virus
Conditions: 6 days, encapsidated HBV DNA in supernatant
Protocol: HBV replication inhibition by the disclosed compounds were determined in cells infected or transfected with HBV or cells with stably integrated HBV, such as HepG2.2.15 cells (Sells et al. 1987). In this example, HepG2.2.15 cells were maintained in cell culture medium containing 10% fetal bovine serum (FBS), Geneticin, L-glutamine, penicillin and streptomycin. HepG2.2.15 cells were seeded in 96-well plates at a density of 40,000 cells/well and were treated with serially diluted compounds at a final DMSO concentration of 0.5% either alone or in combination by adding drugs in a checker box format. Cells were incubated with compounds for three days, after which medium was removed and fresh medium containing compounds was added to cells and incubated for another three days. At day 6, supernatant was removed and treated with DNase at 37° C. for 60 minutes, followed by enzyme inactivation at 75° C. for 15 minutes. Encapsidated HBV DNA was released from the virions and covalently linked HBV polymerase by incubating in lysis buffer (Affymetrix QS0010) containing 2.5 μg proteinase K at 50° C. for 40 minutes. HBV DNA was denatured by addition of 0.2 M NaOH and detected using a branched DNA (BDNA) QuantiGene assay kit according to manufacturer recommendation (Affymetrix). HBV DNA levels were also quantified using qPCR, based on amplification of encapsidated HBV DNA extraction with QuickExtraction Solution (Epicentre Biotechnologies) and amplification of HBV DNA using HBV specific PCR probes that can hybridize to HBV DNA and a fluorescently labeled probe for quantitation. In addition, cell viability of HepG2.2.15 cells incubated with test compounds alone or in combination was determined by using CellTitre-Glo reagent according to the manufacturer protocol (Promega). The mean background signal from wells containing only culture medium was subtracted from all other samples, and percent inhibition at each compound concentration was calculated by normalizing to signals from HepG2.2.15 cells treated with 0.5% DMSO using equation E1.
% inhibition(DMSOave−Xi)DMSOave×100% E1:
where DMSOave is the mean signal calculated from the wells that were treated with DMSO control (0% inhibition control) and Xi is the signal measured from the individual wells. EC50 values, effective concentrations that achieved 50% inhibitory effect, were determined by non-linear fitting using Graphpad Prism software (San Diego, Calif.) and equation E2.
Y=Ymin+(Ymax−Ymin)/(1+10(Log EC50−X)×HillSlope) E2:
where Y represents percent inhibition values and X represents the logarithm of compound concentrations.
Selected disclosed compounds were assayed in the HBV replication assay (BDNA assay), as described above, and a representative group of these active compounds is shown in Table 5.

| Structure (SMILES) | EC50 (Hepatitis B virus, HepG2.2.15, 144 h) [nM] | EC50 [nM] |
| --- | --- | --- |
| C[C@@H]1Cc2nn3c(c2CN1C(=O)Nc1ccc(F)c(C#N)c1)C(F)(F)CC[C@H](CO)C3 (relative stereo) [Example 75] | 5 |  |
| N#Cc1cc(NC(=O)N2CCc3nn4c(c3C2)C(F)(F)CCC(CO)C4)ccc1F (single isomer, unassigned) [Example 19, (S*)—N-(3-Cyano-4-fluorophenyl)-11,11-difluoro-8-(hydroxymethyl)-3,4,8,9,10,11-hexahydro-1H-pyrido[4′,3′:3,4]pyrazolo[1,5-a]azepine-2(7H)-carboxamide] |  | 4 |
| O=C(Nc1ccc(F)c(C(F)(F)F)c1)N1CCc2nn3c(c2C1)C(F)(F)CCC(CO)C3 (single isomer, unassigned) [Example 20, (S*)-11,11-Difluoro-N-(4-fluoro-3-(trifluoromethyl)phenyl)-8-(hydroxymethyl)-3,4,8,9,10,11-hexahydro-1H-pyrido[4′,3′:3,4]pyrazolo[1,5-a]azepine-2(7H)-carboxamide] |  | 4 |
| N#Cc1c(F)ccc(NC(=O)N2CCc3nn4c(c3C2)C(F)(F)CCC(CO)C4)c1F (single isomer, unassigned) [Example 21, (S*)—N-(3-Cyano-2,4-difluorophenyl)-11,11-difluoro-8-(hydroxymethyl)-3,4,8,9,10,11-hexahydro-1H-pyrido[4′,3′:3,4]pyrazolo[1,5-a]azepine-2(7H)-carboxamide] |  | 1 |
| O=C(Nc1ccnc(Br)c1F)N1CCc2nn3c(c2C1)C(F)(F)CCC(CO)C3 (single isomer, unassigned) [Example 22, (S*)—N-(2-Bromo-3-fluoropyridin-4-yl)-11,11-difluoro-8-(hydroxymethyl)-3,4,8,9,10,11-hexahydro-1H-pyrido[4′,3′:3,4]pyrazolo[1,5-a]azepine-2(7H)-carboxamide] |  | 4 |
| N#Cc1cc(NC(=O)N2CCc3nn4c(c3C2)C(F)(F)CCC(CO)C4)ccc1F (single isomer, unassigned) [Example 23, (R*)—N-(3-Cyano-4-fluorophenyl)-11,11-difluoro-8-(hydroxymethyl)-3,4,8,9,10,11-hexahydro-1H-pyrido[4′,3′:3,4]pyrazolo[1,5-a]azepine-2(7H)-carboxamide] |  | 18 |
| O=C(Nc1ccc(F)c(C(F)(F)F)c1)N1CCc2nn3c(c2C1)C(F)(F)CCC(CO)C3 (single isomer, unassigned) [Example 24, (R*)-11,11-Difluoro-N-(4-fluoro-3-(trifluoromethyl)phenyl)-8-(hydroxymethyl)-3,4,8,91011-hexahydro-1H-pyrido[4′,3′:3,4]pyrazolo[1,5-a]azepine-2(7H)-carboxamide] |  | 35 |
| N#Cc1c(F)ccc(NC(=O)N2CCc3nn4c(c3C2)C(F)(F)CCC(CO)C4)c1F (single isomer, unassigned) [Example 25, (R*)—N-(3-Cyano-2,4-difluorophenyl)-11,11-difluoro-8-(hydroxymethyl)-3,4,8,9,10,11-hexahydro-1H-pyrido[4′,3′:3,4]pyrazolo[1,5-a]azepine-2(7H)-carboxamide] |  | 34 |
| O=C(Nc1ccnc(Br)c1F)N1CCc2nn3c(c2C1)C(F)(F)CCC(CO)C3 (single isomer, unassigned) [Example 26, (R*)—N-(2-Bromo-3-fluoropyridin-4-yl)-11,11-difluoro-8-(hydroxymethyl)-3,4,8,9,10,11-hexahydro-1H-pyrido[4′,3′:3,4]pyrazolo[1,5-a]azepine-2(7H)-carboxamide] |  | 25 |
| N#Cc1cc(NC(=O)N2CCc3nn4c(c3C2)C(F)(F)CCC(COCC(F)F)C4)ccc1F (single isomer, unassigned) [Example 27, (S*)—N-(3-Cyano-4-fluorophenyl)-8-((2,2-difluoroethoxy)methyl)-11,11-difluoro-3,4,8,9,10,11-hexahydro-1H-pyrido[4′,3′:3,4]pyrazolo[1,5-a]azepine-2(7H)-carboxamide] |  | 6 |
| O=C(Nc1ccc(F)c(C(F)(F)F)c1)N1CCc2nn3c(c2C1)C(F)(F)CCC(COCC(F)F)C3 (single isomer, unassigned) [Example 28, (S*)-8-((2,2-Difluoroethoxy)methyl)-11,11-difluoro-N-(4-fluoro-3-(trifluoromethyl)phenyl)-3,4,8,9,10,11-hexahydro-1H-pyrido[4′,3′:3,4]pyrazolo[1,5-a]azepine-2(7H)-carboxamide] |  | 22 |
| N#Cc1cc(NC(=O)N2CCc3nn4c(c3C2)C(F)(F)CCC(COCC(F)F)C4)ccc1F (single isomer, unassigned) [Example 29, (R*)—N-(3-Cyano-4-fluorophenyl)-8-((2,2-difluoroethoxy)methyl)-11,11-difluoro-3,4,8,9,10,11-hexahydro-1H-pyrido[4′,3′:3,4]pyrazolo[1,5-a]azepine-2(7H)-carboxamide] |  | 78 |
| O=C(Nc1ccc(F)c(C(F)(F)F)c1)N1CCc2nn3c(c2C1)C(F)(F)CCC(COCC(F)F)C3 (single isomer, unassigned) [Example 30, (R*)-8-((2,2-Difluoroethoxy)methyl)-11,11-difluoro-N-(4-fluoro-3-(trifluoromethyl)phenyl)-3,4,8,9,10,11-hexahydro-1H-pyrido[4′,3′:3,4]pyrazolo[1,5-a]azepine-2(7H)-carboxamide] |  | 267 |
| N#Cc1cc(NC(=O)N2CCc3nn4c(c3C2)C(F)(F)CCC(O)(COCC(F)F)C4)ccc1F (single isomer, unassigned) [Example 31, (R*)—N-(3-Cyano-4-fluorophenyl)-8-((2,2-difluoroethoxy)methyl)-11,11-difluoro-8-hydroxy-3,4,8,9,10,11-hexahydro-1H-pyrido[4′,3′:3,4]pyrazolo[1,5-a]azepine-2(7H)-carboxamide] |  | 42 |
| O=C(Nc1ccnc(C(F)F)c1F)N1CCc2nn3c(c2C1)C(F)(F)CCC(O)(COCC(F)F)C3 (single isomer, unassigned) [Example 33, (R*)-8-((2,2-Difluoroethoxy)methyl)-N-(2-(difluoromethyl)-3-fluoropyridin-4-yl)-11,11-difluoro-8-hydroxy-3,4,8,9,10,11-hexahydro-1H-pyrido[4′,3′:3,4]pyrazolo[1,5-a]azepine-2(7H)-carboxamide] |  | 356 |
| N#Cc1cc(NC(=O)N2CCc3nn4c(c3C2)C(F)(F)CCC(O)(COCC(F)F)C4)ccc1F (single isomer, unassigned) [Example 34, (S*)—N-(3-Cyano-4-fluorophenyl)-8-((2,2-difluoroethoxy)methyl)-11,11-difluoro-8-hydroxy-3,4,8,9,10,11-hexahydro-1H-pyrido[4′,3′:3,4]pyrazolo[1,5-a]azepine-2(7H)-carboxamide] |  | 17 |
| O=C(Nc1ccnc(Br)c1F)N1CCc2nn3c(c2C1)C(F)(F)CCC(O)(COCC(F)F)C3 (single isomer, unassigned) [Example 35, (S*)—N-(2-Bromo-3-fluoropyridin-4-yl)-8-((2,2-difluoroethoxy)methyl)-11,11-difluoro-8-hydroxy-3,4,8,9,10,11-hexahydro-1H-pyrido[4′,3′:3,4]pyrazolo[1,5-a]azepine-2(7H)-carboxamide] |  | 98 |
| O=C(Nc1ccnc(C(F)F)c1F)N1CCc2nn3c(c2C1)C(F)(F)CCC(O)(COCC(F)F)C3 (single isomer, unassigned) [Example 36, (S*)-8-((2,2-Difluoroethoxy)methyl)-N-(2-(difluoromethyl)-3-fluoropyridin-4-yl)-11,11-difluoro-8-hydroxy-3,4,8,9,10,11-hexahydro-1H-pyrido[4′,3′:3,4]pyrazolo[1,5-a]azepine-2(7H)-carboxamide] |  | 39 |
| O=C(Nc1ccnc(Br)c1F)N1CCc2nn3c(c2C1)C(F)(F)CCC(O)(CF)C3 (single isomer, unassigned) [Example 39, (R*)—N-(2-Bromo-3-fluoropyridin-4-yl)-11,11-difluoro-8-(fluoromethyl)-8-hydroxy-3,4,8,9,10,11-hexahydro-1H-pyrido[4′,3′:3,4]pyrazolo[1,5-a]azepine-2(7H)-carboxamide] |  | 144 |
| N#CCC1(O)CCC(F)(F)c2c3c(nn2C1)CCN(C(=O)Nc1ccnc(Br)c1F)C3 (single isomer, unassigned) [Example 41, (R*)—N-(2-Bromo-3-fluoropyridin-4-yl)-8-(cyanomethyl)-11,11-difluoro-8-hydroxy-3,4,89,10,11-hexahydro-1H-pyrido[4′,3′:3,4]pyrazolo[1,5-a]azepine-2(7H)-carboxamide] |  | 52 |
